≈ marks a conversion by molar mass, not a printed value.

Assay in all cases: microbe, parasite or virus in culture
Holding throughout (type): cell-based, Staphylococcus aureus

The subject of one assay is S. aureus (ATCC 29213). As to conditions: Staphylococcus aureus, ATCC29213, MHB, 2–5 × 10^5 CFU/mL, 16–18 h, 37 °C, OD600, duplicate, at least three days, read-out: Minimum inhibitory concentration, MIC. The gist of the method:
(§1)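 Serial 2-fold dilutions of test agent in 0.2% BSA (0.01% HOAc); inoculum 2–5 × 10^5 CFU/mL mid-log cells in MHB; 37 °C, 180 rpm, 16–18 h; OD600 read-out. n = duplicate × ≥3 days.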

The subject of a further assay is MRSA (ATCC 33591). As to conditions: Staphylococcus aureus, MHB, 2–5 × 10^5 CFU/mL, 16–18 h, 37 °C, OD600, read-out: Minimum inhibitory concentration, MIC. The gist of the method: as §1
Another assay has as its system S. aureus (ISP479C). As to conditions: Staphylococcus aureus, MHB, 2–5 × 10^5 CFU/mL, 16–18 h, 37 °C, OD600, read-out: Minimum inhibitory concentration, MIC. The method in brief:
as §1

For the next assay, the system named is S. aureus (ATCC 25923). The following applies: Staphylococcus aureus, ATCC25923, MHB, 2–5 × 10^5 CFU/mL, 16–18 h, 37 °C, OD600, read-out: Minimum inhibitory concentration, MIC. The gist of the method:
as §1

The next assay concerns MRSA (ATCC 43300). The following applies: Staphylococcus aureus, MHB, 2–5 × 10^5 CFU/mL, 16–18 h, 37 °C, OD600, read-out: Minimum inhibitory concentration, MIC. The method in brief:
as §1

Regarding `CN[C@H](CC(C)C)C(=O)N[C@H]1C(=O)N[C@@H](CC(N)=O)C(=O)N[C@H]2C(=O)N[C@H]3C(=O)N[C@H](C(=O)N[C@H](C(=O)O)c4cc(O)cc(O)c4-c4cc3ccc4O)[C@H](O)c3ccc(c(Cl)c3)Oc3cc2cc(c3O[C@@H]2O[C@H](CO)[C@@H](O)[C@H](O)[C@H]2O[C@H]2C[C@](C)(N)[C@H](O)[C@H](C)O2)Oc2ccc(cc2Cl)[C@H]1O` [VAN, vancomycin], the MIC came out at 0.7 µg/mL (≈ 0.483 µM) with S. aureus (ATCC 29213); 1.4 µg/mL (≈ 0.966 µM) in the assay with MRSA (ATCC 33591); 0.3 µg/mL (≈ 0.207 µM) in the assay with S. aureus (ISP479C); 1.4 µg/mL (≈ 0.966 µM) in the assay on S. aureus (ATCC 25923); 0.7 µg/mL (≈ 0.483 µM) in the assay on MRSA (ATCC 43300).

Source of the values: paper PMC5773577, “Novel Miniature Membrane Active Lipopeptidomimetics against Planktonic and Biofilm Embedded Methicillin-Resistant Staphylococcus aureus” (Scientific Reports, 2018).
